Data as given in US8921409B2, “Combination of 4-{3-[cis-hexahydrocyclopenta[c]pyrrol-2(1H)-yl]propoxy}benzamide and a NMDA receptor antagonist and pharmaceutical compositions containing the same” (Les Laboratoires Servier, priority 2011, dated 2014).
Where a name gives a salt, the structure may show the parent alone.

Test system: middle-aged (14-15 months old) C57B16 mouse
Experiment: Contextual serial discrimination test (model of episodic memory)
Format: in vivo
Text: The effects of 4-{3-[cis-hexahydrocyclopenta[c]pyrrol-2(1H)-yl]propoxy}benzamide and memantine (both in the form of a hydrochloride), administered on their own or in combination, were studied using a contextual discrimination test in the middle-aged (14-15 months old) C57B16 mouse (n=12 per group) (Célérier et al., Learn Mem., 2004, 11(2), 196-204; Tronche et al., Behav. Brain Res., 2010, 215(2): 255-60). In this model, the middle-aged mice have a specific dysfunction of contextual episodic memory compared to young mice, without a deficiency in spatial memory. This model is relevant for evaluating the effects of products in Alzheimer's disease because patients suffering from that form of dementia also have disturbances of contextual episodic memory, this being the case from a very early stage (Gold and Budson, Expert Rev Neurother., 2008, 8(12): 1879-1891).
The mice, placed in a box with raised edges, learn two types of consecutive spatial discrimination (D1: white floor, then D2: black floor) on a floor with four holes, in which just one of the holes is baited, the arrangement being opposite in D1 and in D2. The colour of the floor (black or white) constitutes the internal context specific to each discrimination. 24 hours after the learning step, the mice are returned to the white contextual floor, and the following are measured: • the percentage of correct responses (i.e. % of lowering the head into the hole that was baited during the learning exercise on the white floor), • the percentage of interfering responses (i.e. % of lowering the head into the hole that was baited during the learning exercise on the black floor, the last context presented to the mice), • and the percentage of errors (i.e. % of lowering the head into the two holes that were not baited during learning, whether on the white floor or on the black floor (see FIG. 1).
The power of contextual memory is defined as being the difference between the percentage of correct responses and the percentage of interfering responses. […]

SMILES	power of contextual memory (% correct responses minus % interfering responses) (compound S hydrochloride 0.1 mg/kg of base per os, chronic treatment for 9 days, carrier −34%) [%]	power of contextual memory (% correct responses minus % interfering responses) (compound S on its own, 1 mg/kg of base per os)	power of contextual memory (% correct responses minus % interfering responses) (memantine hydrochloride 1 mg/kg of base per os, chronic treatment for 9 days, carrier −34%) [%]
NC(=O)c1ccc(OCCCN2C[C@H]3CCC[C@H]3C2)cc1 [compound S, 4-{3-[cis-hexahydrocyclopenta[c]pyrrol-2(1H)-yl]propoxy}benzamide]	−15	+14%	–
CC12CC3CC(C)(C1)CC(N)(C3)C2 [memantine hydrochloride, memantine, reference compound]	–	–	−2
